Data reported in ChEMBL document CHEMBL4507259 (2021).

How the values were obtained:
[1] = target: Death-associated protein kinase 3 (Homo sapiens) (UniProt O43293); settings: Compound concentration 1000.0 nM
[2] = target: Ephrin type-A receptor 4 (Homo sapiens) (UniProt P54764); settings: Compound concentration 1000.0 nM
[3] = target: Aurora kinase C (Homo sapiens) (UniProt Q9UQB9); settings: Compound concentration 1000.0 nM
[4] = target: Testis-specific serine/threonine-protein kinase 1 (Homo sapiens) (UniProt Q9BXA7); settings: Compound concentration 1000.0 nM
[5] = target: Mu-type opioid receptor (Homo sapiens) (UniProt P35372); test: mu (MOP) (h) CEREP ligand profiling; settings: filed as agonist, Compound concentration 10.0 uM
[6] = target: Cyclin-dependent kinase 7 (Homo sapiens) (UniProt P50613); settings: Compound concentration 1000.0 nM
[7] = target: SNF-related serine/threonine-protein kinase (Homo sapiens) (UniProt Q9NRH2); settings: Compound concentration 1000.0 nM
[8] = target: Interferon-induced, double-stranded RNA-activated protein kinase (Homo sapiens) (UniProt P19525); settings: Compound concentration 1000.0 nM
[9] = target: Cannabinoid receptor 2 (Homo sapiens) (UniProt P34972); test: CB2 (h) CEREP ligand profiling; settings: filed as agonist, Compound concentration 10.0 uM
[10] = target: Muscle, skeletal receptor tyrosine-protein kinase (Homo sapiens) (UniProt O15146); settings: Compound concentration 1000.0 nM
[11] = target: Mitogen-activated protein kinase 12 (Homo sapiens) (UniProt P53778); settings: Compound concentration 1000.0 nM
[12] = target: 5-hydroxytryptamine receptor 1B (Homo sapiens) (UniProt P28222); test: 5-HT1B CEREP ligand profiling; settings: filed as antagonist; Compound concentration 10.0 uM
[13] = target: 5'-AMP-activated protein kinase catalytic subunit alpha-1 (Homo sapiens) (UniProt Q13131); settings: Compound concentration 1000.0 nM
[14] = target: Bone morphogenetic protein receptor type-1A (Homo sapiens) (UniProt P36894); settings: Compound concentration 1000.0 nM
[15] = target: T1, Alpha-2A adrenergic receptor (Homo sapiens) (UniProt P08913); settings: Compound concentration 10.0 uM
T1 sequence (whole entry): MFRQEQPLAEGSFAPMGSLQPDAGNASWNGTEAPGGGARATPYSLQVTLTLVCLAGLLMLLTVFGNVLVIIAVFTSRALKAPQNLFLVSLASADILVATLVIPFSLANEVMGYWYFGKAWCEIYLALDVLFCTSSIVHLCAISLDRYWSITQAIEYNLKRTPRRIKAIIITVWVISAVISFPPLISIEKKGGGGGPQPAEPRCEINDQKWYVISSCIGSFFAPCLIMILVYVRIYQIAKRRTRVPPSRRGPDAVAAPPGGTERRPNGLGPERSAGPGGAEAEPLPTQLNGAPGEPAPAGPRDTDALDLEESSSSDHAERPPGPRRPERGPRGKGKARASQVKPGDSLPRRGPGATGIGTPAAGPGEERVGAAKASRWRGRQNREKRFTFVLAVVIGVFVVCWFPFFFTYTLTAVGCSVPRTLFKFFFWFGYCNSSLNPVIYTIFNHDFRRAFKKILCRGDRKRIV

[16] = test system: Mast/stem cell growth factor receptor Kit (Homo sapiens), P10721 [D816H]; settings: Compound concentration 1000.0 nM
[17] = test system: Phosphatidylinositol 4,5-bisphosphate 3-kinase catalytic subunit alpha isoform (Homo sapiens), P42336 [H1047Y]; settings: Compound concentration 1000.0 nM
[18] = test system: Epidermal growth factor receptor (Homo sapiens), P00533 [UNDEFINED MUTATION]; settings: Compound concentration 1000.0 nM
[19] = target: Mitogen-activated protein kinase kinase kinase 19 (Homo sapiens) (UniProt Q56UN5); settings: Compound concentration 1000.0 nM
[20] = target: Fibroblast growth factor receptor 2 (Homo sapiens) (UniProt P21802); settings: Compound concentration 1000.0 nM
[21] = test system: Receptor-type tyrosine-protein kinase FLT3 (Homo sapiens), P36888 [R834Q]; settings: Compound concentration 1000.0 nM
[22] = test system: Phosphatidylinositol 4,5-bisphosphate 3-kinase catalytic subunit alpha isoform (Homo sapiens), P42336 [E545A]; settings: Compound concentration 1000.0 nM
[23] = target: Receptor tyrosine-protein kinase erbB-3 (Homo sapiens) (UniProt P21860); settings: Compound concentration 1000.0 nM
[24] = target: 5-hydroxytryptamine receptor 1E (Homo sapiens) (UniProt P28566); settings: Compound concentration 10.0 uM
[25] = target: Serine/threonine-protein kinase PknB (Mycobacterium tuberculosis) (UniProt P9WI81); settings: Compound concentration 1000.0 nM
D(3) dopamine receptor = D(3) dopamine receptor (Homo sapiens, UniProt P35462); settings: Compound concentration 10.0 uM
[26] = target: Androgen receptor (Homo sapiens) (UniProt P10275); test: AR (h) CEREP ligand profiling; settings: filed as agonist, Compound concentration 10.0 uM
[27] = target: Ephrin type-B receptor 2 (Homo sapiens) (UniProt P29323); settings: Compound concentration 1000.0 nM
[28] = target: MAP kinase-activated protein kinase 2 (Homo sapiens) (UniProt P49137); settings: Compound concentration 1000.0 nM
[29] = target: Tyrosine-protein kinase ABL1 (Homo sapiens) (UniProt P00519); settings: Compound concentration 1000.0 nM
[30] = target: Sodium-dependent serotonin transporter (Homo sapiens, UniProt P31645); test: 5-HT transporter (h) CEREP ligand profiling; settings: filed as antagonist, Compound concentration 10.0 uM
[31] = target: Serine/threonine-protein kinase Chk2 (Homo sapiens) (UniProt O96017); settings: Compound concentration 1000.0 nM
[32] = target: Estrogen receptor (Homo sapiens) (UniProt P03372); test: Estrogen ER alpha (h) CEREP ligand profiling; settings: filed as agonist, Compound concentration 10.0 uM
[33] = target: Serine/threonine-protein kinase PLK3 (Homo sapiens) (UniProt Q9H4B4); settings: Compound concentration 1000.0 nM
[34] = target: cGMP-dependent protein kinase 1 (Homo sapiens) (UniProt Q13976); settings: Compound concentration 1000.0 nM
[35] = target: Tyrosine-protein kinase Mer (Homo sapiens) (UniProt Q12866); settings: Compound concentration 1000.0 nM
[36] = test system: Epidermal growth factor receptor (Homo sapiens), P00533 [UNDEFINED MUTATION]; settings: Compound concentration 1000.0 nM; remark: listed apart in the source
[37] = target: NUAK family SNF1-like kinase 2 (Homo sapiens) (UniProt Q9H093); settings: Compound concentration 1000.0 nM

Epidermal growth factor receptor (Homo sapiens), P00533 [UNDEFINED MUTATION], sequence (P00533 whole entry, looked up, change not shown): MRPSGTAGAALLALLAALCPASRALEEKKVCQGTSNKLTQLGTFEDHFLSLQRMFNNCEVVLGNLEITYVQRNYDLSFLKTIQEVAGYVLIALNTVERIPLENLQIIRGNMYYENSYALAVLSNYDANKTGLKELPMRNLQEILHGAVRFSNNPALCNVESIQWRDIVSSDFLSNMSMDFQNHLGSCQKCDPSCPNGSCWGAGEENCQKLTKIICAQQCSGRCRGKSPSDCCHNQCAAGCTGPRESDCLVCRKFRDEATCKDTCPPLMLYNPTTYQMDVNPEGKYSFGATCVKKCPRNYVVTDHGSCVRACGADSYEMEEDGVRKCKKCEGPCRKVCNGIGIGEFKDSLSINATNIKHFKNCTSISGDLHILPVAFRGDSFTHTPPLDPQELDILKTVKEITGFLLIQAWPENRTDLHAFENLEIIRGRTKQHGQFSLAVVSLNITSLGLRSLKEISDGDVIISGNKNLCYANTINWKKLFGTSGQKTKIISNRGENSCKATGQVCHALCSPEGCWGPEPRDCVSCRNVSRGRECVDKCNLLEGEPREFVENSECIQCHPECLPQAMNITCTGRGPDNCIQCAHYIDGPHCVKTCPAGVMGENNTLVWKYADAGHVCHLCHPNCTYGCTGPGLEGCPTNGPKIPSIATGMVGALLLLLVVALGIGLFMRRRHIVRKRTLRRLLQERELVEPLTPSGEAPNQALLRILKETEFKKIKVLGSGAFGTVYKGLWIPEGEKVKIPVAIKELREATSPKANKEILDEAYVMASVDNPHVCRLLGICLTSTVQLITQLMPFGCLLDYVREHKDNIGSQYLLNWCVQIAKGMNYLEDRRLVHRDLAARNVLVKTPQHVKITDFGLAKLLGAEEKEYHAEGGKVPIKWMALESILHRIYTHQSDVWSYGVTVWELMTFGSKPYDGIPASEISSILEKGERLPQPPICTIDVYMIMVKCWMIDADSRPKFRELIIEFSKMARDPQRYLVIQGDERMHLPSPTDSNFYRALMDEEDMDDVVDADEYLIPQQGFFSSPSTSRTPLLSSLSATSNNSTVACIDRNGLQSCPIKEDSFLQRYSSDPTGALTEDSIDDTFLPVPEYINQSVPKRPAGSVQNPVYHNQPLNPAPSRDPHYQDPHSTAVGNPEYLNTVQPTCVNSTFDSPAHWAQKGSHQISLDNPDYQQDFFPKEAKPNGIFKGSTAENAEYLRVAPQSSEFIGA
Ephrin type-B receptor 2 (Homo sapiens), sequence (P29323 whole entry): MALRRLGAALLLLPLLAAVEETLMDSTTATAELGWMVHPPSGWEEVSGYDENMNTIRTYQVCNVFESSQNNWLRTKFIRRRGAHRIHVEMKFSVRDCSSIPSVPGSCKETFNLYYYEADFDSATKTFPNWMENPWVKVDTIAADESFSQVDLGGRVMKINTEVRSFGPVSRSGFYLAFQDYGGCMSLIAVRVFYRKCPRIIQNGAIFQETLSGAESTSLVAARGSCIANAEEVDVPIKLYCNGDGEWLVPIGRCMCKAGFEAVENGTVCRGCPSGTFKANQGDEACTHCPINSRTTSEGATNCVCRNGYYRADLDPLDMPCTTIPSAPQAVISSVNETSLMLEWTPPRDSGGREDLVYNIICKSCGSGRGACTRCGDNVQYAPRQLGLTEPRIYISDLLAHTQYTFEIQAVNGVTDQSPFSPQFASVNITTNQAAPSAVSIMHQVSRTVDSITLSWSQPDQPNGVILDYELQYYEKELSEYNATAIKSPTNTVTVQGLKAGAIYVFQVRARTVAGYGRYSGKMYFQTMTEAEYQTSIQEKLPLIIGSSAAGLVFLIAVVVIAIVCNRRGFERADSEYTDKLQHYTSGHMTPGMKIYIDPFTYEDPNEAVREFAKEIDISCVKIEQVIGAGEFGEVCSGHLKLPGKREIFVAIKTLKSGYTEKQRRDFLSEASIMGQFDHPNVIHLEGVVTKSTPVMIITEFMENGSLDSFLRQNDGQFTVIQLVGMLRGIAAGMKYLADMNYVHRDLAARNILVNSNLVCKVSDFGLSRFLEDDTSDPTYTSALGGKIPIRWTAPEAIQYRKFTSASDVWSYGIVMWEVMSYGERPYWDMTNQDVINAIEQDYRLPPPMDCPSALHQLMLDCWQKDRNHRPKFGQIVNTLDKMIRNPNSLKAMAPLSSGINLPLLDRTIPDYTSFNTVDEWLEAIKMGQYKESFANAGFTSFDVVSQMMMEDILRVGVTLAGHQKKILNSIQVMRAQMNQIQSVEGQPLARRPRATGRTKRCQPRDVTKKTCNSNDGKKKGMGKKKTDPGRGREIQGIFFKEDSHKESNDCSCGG
Testis-specific serine/threonine-protein kinase 1 (Homo sapiens), sequence (Q9BXA7 whole entry): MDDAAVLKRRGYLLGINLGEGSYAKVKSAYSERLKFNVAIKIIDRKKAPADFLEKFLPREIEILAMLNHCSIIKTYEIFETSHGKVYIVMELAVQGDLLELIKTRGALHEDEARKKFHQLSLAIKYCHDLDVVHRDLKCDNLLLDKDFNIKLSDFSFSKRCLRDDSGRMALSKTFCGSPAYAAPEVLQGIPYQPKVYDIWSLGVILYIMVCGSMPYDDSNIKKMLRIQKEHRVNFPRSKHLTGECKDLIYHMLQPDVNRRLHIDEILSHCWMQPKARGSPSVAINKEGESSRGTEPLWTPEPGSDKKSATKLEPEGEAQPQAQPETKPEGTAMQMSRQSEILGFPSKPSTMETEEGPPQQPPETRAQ
Estrogen receptor (Homo sapiens), sequence (P03372 whole entry): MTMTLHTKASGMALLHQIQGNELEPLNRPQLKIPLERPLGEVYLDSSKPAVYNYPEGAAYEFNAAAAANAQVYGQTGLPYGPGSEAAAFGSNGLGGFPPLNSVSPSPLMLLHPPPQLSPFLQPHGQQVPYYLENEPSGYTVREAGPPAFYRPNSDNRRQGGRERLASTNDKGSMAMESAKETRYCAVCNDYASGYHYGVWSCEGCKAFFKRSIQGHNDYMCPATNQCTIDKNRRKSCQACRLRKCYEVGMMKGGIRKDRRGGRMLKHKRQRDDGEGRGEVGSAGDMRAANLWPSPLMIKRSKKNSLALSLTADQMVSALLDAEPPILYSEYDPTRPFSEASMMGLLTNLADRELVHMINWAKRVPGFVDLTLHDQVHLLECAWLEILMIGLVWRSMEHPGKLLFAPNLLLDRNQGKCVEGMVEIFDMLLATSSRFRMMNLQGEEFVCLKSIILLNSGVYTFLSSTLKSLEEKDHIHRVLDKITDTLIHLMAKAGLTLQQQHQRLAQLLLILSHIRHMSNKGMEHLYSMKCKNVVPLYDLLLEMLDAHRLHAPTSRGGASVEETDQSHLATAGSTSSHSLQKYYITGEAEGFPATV
Cannabinoid receptor 2 (Homo sapiens), sequence (P34972 whole entry): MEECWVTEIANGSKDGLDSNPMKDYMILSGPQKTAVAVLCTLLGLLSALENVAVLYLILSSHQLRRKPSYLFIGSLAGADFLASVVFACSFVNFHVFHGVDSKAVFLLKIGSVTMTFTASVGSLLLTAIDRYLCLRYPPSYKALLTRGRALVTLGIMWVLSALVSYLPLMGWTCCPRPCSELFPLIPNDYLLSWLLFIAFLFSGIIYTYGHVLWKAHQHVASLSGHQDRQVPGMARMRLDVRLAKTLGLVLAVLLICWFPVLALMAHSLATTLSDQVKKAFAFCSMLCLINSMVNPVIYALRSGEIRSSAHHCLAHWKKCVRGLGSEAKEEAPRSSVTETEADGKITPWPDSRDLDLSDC
Mitogen-activated protein kinase 12 (Homo sapiens), sequence (P53778 whole entry): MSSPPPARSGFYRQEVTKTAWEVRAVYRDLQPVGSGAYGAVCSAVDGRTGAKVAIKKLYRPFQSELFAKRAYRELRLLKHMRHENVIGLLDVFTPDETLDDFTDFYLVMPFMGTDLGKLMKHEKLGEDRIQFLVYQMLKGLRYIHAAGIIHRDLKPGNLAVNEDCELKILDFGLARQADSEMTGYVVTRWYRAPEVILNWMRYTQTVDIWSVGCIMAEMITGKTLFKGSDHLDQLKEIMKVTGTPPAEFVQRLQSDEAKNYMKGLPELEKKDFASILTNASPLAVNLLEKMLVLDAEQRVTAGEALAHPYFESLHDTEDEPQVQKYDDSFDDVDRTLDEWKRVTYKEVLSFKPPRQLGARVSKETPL
Tyrosine-protein kinase Mer (Homo sapiens), sequence (Q12866 whole entry): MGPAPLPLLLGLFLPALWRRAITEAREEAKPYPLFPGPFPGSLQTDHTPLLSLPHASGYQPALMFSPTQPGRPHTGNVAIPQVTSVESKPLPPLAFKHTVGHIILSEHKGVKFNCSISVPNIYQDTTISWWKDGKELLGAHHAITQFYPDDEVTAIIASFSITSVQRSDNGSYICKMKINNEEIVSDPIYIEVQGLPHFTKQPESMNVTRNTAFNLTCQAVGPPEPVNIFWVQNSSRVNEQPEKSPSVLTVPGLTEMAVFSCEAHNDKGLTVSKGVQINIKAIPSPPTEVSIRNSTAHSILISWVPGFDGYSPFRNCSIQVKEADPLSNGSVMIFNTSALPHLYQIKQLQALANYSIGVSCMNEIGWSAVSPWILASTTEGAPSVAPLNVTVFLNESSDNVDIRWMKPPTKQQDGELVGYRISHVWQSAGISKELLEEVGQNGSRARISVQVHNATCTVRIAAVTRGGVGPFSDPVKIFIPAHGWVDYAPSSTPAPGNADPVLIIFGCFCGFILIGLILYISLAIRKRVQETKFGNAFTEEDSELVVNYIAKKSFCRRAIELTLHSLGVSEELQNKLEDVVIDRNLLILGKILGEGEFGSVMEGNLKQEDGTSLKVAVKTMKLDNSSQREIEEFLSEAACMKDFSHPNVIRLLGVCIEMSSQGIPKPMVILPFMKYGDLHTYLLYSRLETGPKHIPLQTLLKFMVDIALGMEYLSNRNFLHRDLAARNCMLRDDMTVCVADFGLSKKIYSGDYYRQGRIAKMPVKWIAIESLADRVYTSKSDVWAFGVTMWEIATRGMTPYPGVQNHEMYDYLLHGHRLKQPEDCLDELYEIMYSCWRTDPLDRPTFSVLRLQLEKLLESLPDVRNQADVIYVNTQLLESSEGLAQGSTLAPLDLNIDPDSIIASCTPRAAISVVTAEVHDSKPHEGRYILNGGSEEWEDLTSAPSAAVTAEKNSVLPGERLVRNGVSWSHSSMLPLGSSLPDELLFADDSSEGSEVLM

SMILES | residual activity [1] | residual activity [2] | residual activity [3] | residual activity [4] | inhibition [5] | residual activity [6] | residual activity [7] | residual activity [8] | inhibition [9] | residual activity [10] | residual activity [11] | inhibition [12] | residual activity [13] | residual activity [14] | inhibition [15] | residual activity [16] | residual activity [17] | residual activity [18] | residual activity [19] | residual activity [20] | other results
CNC(=O)Nc1ccc2c(c1)CC[C@@]21OC(=O)N(CC(=O)N(Cc2ccc(F)cc2)[C@@H](C)C(F)(F)F)C1=O [A-485] | 86% | 89% | 100% | 84% | 12% | 78% | 96% | 92% | 67% | 91% | 63% | -6% | 100% | 91% | 3.72% | 67% | 91% | 90% | 78% | 88% | residual activity [21]: 92%; residual activity [22]: 91%; residual activity [23]: 89%; inhibition [24]: 4.23%; residual activity [25]: 83%; inhibition (D(3) dopamine receptor): 1.52%; inhibition [26]: -4%; residual activity [27]: 72%; residual activity [28]: 87%; residual activity [29]: 84%; inhibition [30]: 99%; residual activity [31]: 100%; inhibition [32]: 5%; residual activity [33]: 86%; residual activity [34]: 100%; residual activity [35]: 82%; residual activity [36]: 95%; residual activity [37]: 74%
CNC(=O)Nc1ccc2c(c1)[C@@]1(CC2)OC(=O)N(CC(=O)N(Cc2ccc(F)cc2)[C@@H](C)C(F)(F)F)C1=O [A-486] | 100% | 86% | 100% | 100% | 7% | 76% | 100% | 100% | 4% | 100% | 96% | -9% | 91% | 100% | -1.4% | 70% | 100% | 100% | 73% | 87% | residual activity [21]: 96%; residual activity [22]: 97%; residual activity [23]: 81%; inhibition [24]: 0.33%; residual activity [25]: 84%; inhibition (D(3) dopamine receptor): 57.8%; inhibition [26]: 4%; residual activity [27]: 87%; residual activity [28]: 100%; residual activity [29]: 93%; inhibition [30]: 40%; residual activity [31]: 100%; inhibition [32]: -10%; residual activity [33]: 84%; residual activity [34]: 100%; residual activity [35]: 100%; residual activity [36]: 96%; residual activity [37]: 77%
